Test results reported in ChEMBL document CHEMBL1201862, “PubChem BioAssay data set” (2004).
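Cultured in 96-well plates, cells were exposed to test compound for 48 hours across five concentrations. GI50 = concentration required for 50% inhibition of growth.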 Activity calls are given as the source filed them. Cut-off read from the data, not from the text of the source: active = GI50 up to about 1.1 µM and inactive = higher.

What was measured:
Assay in all cases: growth of human tumour cells (NCI), 48 h
[1] = system: PC-3
[2] = system: SW-620
[3] = system: LOX IMVI
[4] = system: HCT-116
[5] = system: OVCAR-5
[6] = system: MDA-N
[7] = system: DU-145
[8] = system: SK-MEL-5
[9] = system: MDA-MB-435
[10] = system: HCT-15
[11] = system: Hs-578T
[12] = system: SK-MEL-2
[13] = system: MDA-MB-231
[14] = system: Malme-3M
[15] = system: MOLT-4
[16] = system: MCF7
[17] = system: BT-549

| Compound | GI50 [1] | GI50 [2] | GI50 [3] | GI50 [4] | GI50 [5] | GI50 [6] | GI50 [7] | GI50 [8] | GI50 [9] | GI50 [10] | GI50 [11] | GI50 [12] | GI50 [13] | GI50 [14] | GI50 [15] | GI50 [16] | GI50 [17] |
| --- | --- | --- | --- | --- | --- | --- | --- | --- | --- | --- | --- | --- | --- | --- | --- | --- | --- |
| S=C1/C(=N/c2ccccc2)N(c2ccccc2)/C(=N\c2ccccn2)N1c1ccccc1 | 12.8 µM (inactive) | 14 µM (inactive) | 6.61 µM (inactive) | 14.2 µM (inactive) | 16.4 µM (inactive) | 6.3 µM (inactive) | 19.8 µM (inactive) | 13.9 µM (inactive) | 15.2 µM (inactive) | 8.18 µM | 14.9 µM (inactive) | 11.9 µM (inactive) | 16.6 µM (inactive) | 16.9 µM (inactive) | > 100 µM (inactive) |  |  |
| CCOP(=O)(OCC)C(Cc1c[nH]c2ccccc12)C(=O)O (stereo unspecified) | > 100 µM (inactive) | > 100 µM (inactive) | > 100 µM (inactive) | > 100 µM (inactive) | > 100 µM (inactive) | > 100 µM (inactive) | > 100 µM (inactive) | > 100 µM (inactive) | > 100 µM (inactive) | > 100 µM | > 100 µM (inactive) | > 100 µM (inactive) | > 100 µM (inactive) |  | > 100 µM (inactive) | 37.2 µM (inactive) |  |
| O=c1[nH]c2cc(C(F)(F)F)ccc2nc1C(F)(F)F | 37.8 µM (inactive) | 53.3 µM (inactive) | 30.8 µM (inactive) | 27.5 µM (inactive) | 36.9 µM (inactive) | 32.7 µM (inactive) | 33.8 µM (inactive) | 13.8 µM (inactive) | 34 µM (inactive) | 37.2 µM |  | 33.7 µM (inactive) | 31.3 µM (inactive) | 35.2 µM (inactive) | 38.4 µM (inactive) | 53.6 µM (inactive) | 44.2 µM (inactive) |
| C[C@]12CC[C@H](O[C@@H]3O[C@H](CO[C@@H]4O[C@H](CO)[C@@H](O)[C@H](O)[C@H]4O)[C@@H](O)[C@H](O)[C@H]3O)C[C@@H]1CC[C@@H]1[C@@H]2CC[C@]2(C)[C@@H](C3=CC(=O)OC3)CC[C@]12O [UZARIN] | 28.2 µM (inactive) | 31.6 µM (inactive) | 22.1 µM (inactive) | 9.06 µM (inactive) | 27.4 µM (inactive) | 29 µM (inactive) | 13.3 µM (inactive) | 4.62 µM (inactive) | 31.8 µM (inactive) | 18.2 µM | 19.5 µM (inactive) | 36.4 µM (inactive) | > 80.2 µM (inactive) | 17.5 µM (inactive) | 4.02 µM (inactive) |  | 6.71 µM (inactive) |
| CCOC(=O)c1nc2ccc(C(F)(F)F)cc2nc1NCc1ccc(Cl)c(Cl)c1 | 22.8 µM (inactive) | 40 µM (inactive) | 30.8 µM (inactive) | 27 µM (inactive) | > 100 µM (inactive) | 57.4 µM (inactive) |  | 31.9 µM (inactive) | 23.6 µM (inactive) | 36.1 µM | 20.8 µM (inactive) | 63.8 µM (inactive) | 30.2 µM (inactive) | 21.8 µM (inactive) | > 100 µM (inactive) | 30.4 µM (inactive) | 37 µM (inactive) |
| CNNC(=NS(=O)(=O)c1cc(C#N)c(NNC)cc1S)NNC | > 10 µM (inactive) | > 10 µM (inactive) | > 10 µM (inactive) | > 10 µM (inactive) | > 10 µM (inactive) | > 10 µM (inactive) | > 10 µM (inactive) | > 10 µM (inactive) |  | > 10 µM | > 10 µM (inactive) | > 10 µM (inactive) |  | > 10 µM (inactive) | > 10 µM (inactive) | > 10 µM (inactive) | > 10 µM (inactive) |
| Cc1c2c(n(CCN(C)C)c1C)NN=C(C#N)S2(=O)=O | > 100 µM (inactive) | > 100 µM (inactive) | > 100 µM (inactive) | > 100 µM (inactive) | > 100 µM (inactive) | > 100 µM (inactive) | > 100 µM (inactive) |  | > 100 µM (inactive) | > 100 µM | > 100 µM (inactive) | > 100 µM (inactive) | > 100 µM (inactive) | > 100 µM (inactive) | > 100 µM (inactive) | > 100 µM (inactive) |  |
| O=c1cc(NNc2ccccc2)[nH]c(=O)[nH]1 | 21.9 µM (inactive) | > 10 µM (inactive) | 19.8 µM (inactive) | 18.1 µM (inactive) | > 100 µM (inactive) | 20.2 µM (inactive) | > 100 µM (inactive) | 80.9 µM (inactive) | 19 µM (inactive) | 16.5 µM | 80.7 µM (inactive) |  | 15.8 µM (inactive) | 19.8 µM (inactive) | 27.2 µM (inactive) | 12.9 µM (inactive) |  |
| CN(COC(=O)C(C)(C)C)c1nc(N(C)COC(=O)C(C)(C)C)nc(N(C)COC(=O)C(C)(C)C)n1 | 77.8 µM (inactive) | 22 µM (inactive) |  | 18.8 µM (inactive) | > 100 µM (inactive) | 25.7 µM (inactive) | 22.4 µM (inactive) | 33.2 µM (inactive) |  | 21 µM | > 100 µM (inactive) | 61.1 µM (inactive) | 16.4 µM (inactive) | 12.7 µM (inactive) | 24.8 µM (inactive) | 33.8 µM (inactive) | 34.4 µM (inactive) |
| COc1cccc(-c2[nH]c3cc4c(cc3c(=O)c2C(=O)O)OCO4)c1 | 57.5 µM (inactive) | 29 µM (inactive) | 42.3 µM (inactive) | 32.8 µM (inactive) | > 100 µM (inactive) | 9.84 µM (inactive) | 38.7 µM (inactive) | 31 µM (inactive) | 8.39 µM (inactive) | 28.4 µM |  | 78.7 µM (inactive) | 57.5 µM (inactive) |  | 24.2 µM (inactive) | 41 µM (inactive) | 51.3 µM (inactive) |
| CCOC(=O)C1=C(c2ccccc2)N(C)c2ccccc2S1 | 29.9 µM (inactive) | 44.4 µM (inactive) | 16.7 µM (inactive) | 25.2 µM (inactive) | 35.1 µM (inactive) |  | 44.2 µM (inactive) | 16.1 µM (inactive) | 33.2 µM (inactive) | 14.6 µM | 23.3 µM (inactive) | 23.2 µM (inactive) | 29.6 µM (inactive) | 40.6 µM (inactive) | 32.4 µM (inactive) | 36 µM (inactive) | 21.5 µM (inactive) |
| O=C1c2ccccc2C(=O)c2cc(/N=N/c3c(O)ccc4ccccc34)ccc21 | > 100 µM (inactive) | > 100 µM (inactive) | > 100 µM (inactive) | > 100 µM (inactive) | > 100 µM (inactive) | > 100 µM (inactive) | > 100 µM (inactive) | > 100 µM (inactive) | > 100 µM (inactive) | > 100 µM | 27.7 µM (inactive) | > 100 µM (inactive) | > 100 µM (inactive) | > 100 µM (inactive) | > 100 µM (inactive) |  | > 100 µM (inactive) |
| CC(NC(=O)c1ccc(OP(=O)(OCC2=CC(=O)c3ccccc3C2=O)N(C)CCCCCl)cc1)c1ccc(OCC2CCCCC2)c(C(N)=O)c1 (stereo unspecified) | 14.2 µM (inactive) | 12.4 µM (inactive) | 4.27 µM (inactive) | 14.3 µM (inactive) | 21.4 µM (inactive) | 2.72 µM (inactive) | 3.5 µM (inactive) | 0.328 µM (active) | 2.47 µM (inactive) | 12.2 µM | 2.52 µM (inactive) | 14.8 µM (inactive) | 8.99 µM (inactive) | 1.88 µM (inactive) | 12.3 µM (inactive) | 11.4 µM (inactive) |  |
